Data set [1] can be described thus: Solubility (aqueous buffers, water, DMSO). It is filed as physicochemical. An excerpt:
Replacement of the 5′-oxygen atom in the acyl-sulfamate with a nitrogen affords an acyl-sulfamide backbone, which increases the pKa of the backbone NH by 2-3 units.

Data set [2] has as its target T1, hHint1 (Homo sapiens (Human), UniProt P49773). Briefly: Isothermal titration calorimetry (ITC) of hHint1-ligand complexes. It is filed as binding. The conditions noted are these: for ΔG / ΔH / −TΔS / Kd: ITC, hHint1; for Kd: 20° C. The protocol:
Isothermal Titration Calorimetry (ITC) ITC experiments were conducted on a MicroCal Auto-ITC200 system (GE Healthcare life sciences). […] To determine the dissociation constant of stock concentration (300-400 uM) of inhibitors was titrated with 15-20 uM of Hint1. Twenty injections of ligand were injected (injection volume 2 ul) into the protein cell. […] The in vitro binding affinity of the new series was evaluated of analogues for hHint1 using isothermal calorimetry (ITC).

Data set [3] deals with ICR mice. Briefly: Development of morphine analgesic tolerance, tail flick assay. It is filed as in vivo, mouse. The conditions noted are these: HINT1 inhibitor+morphine intrathecally for 3 days, morphine challenge on Day 4.
Data set [4] relates to ICR mice. Briefly: Inhibition of morphine inhibition of NMDA-evoked scratching and biting behavior. Type of data set: in vivo, mouse. The note with it: male mice, intrathecal pretreatment before morphine and NMDA. As for the experimental part: Male ICR mice (25-30) were given TpGc (10 nmol) 10 minutes before morphine sulfate (10 nmol) intrathecally. After a period of 10 minutes, NMDA was injected intrathecally and scratching and biting behaviors were quantified. The MPE % was calculated using morphine alone as the positive control.
Male mice were given intrathecal treatment of either morphine or morphine+a HINT1 inhibitor. They were then given an intrathecal injection of NMDA and scratching and biting behaviors were counted for 1 minute. […]

Data set [5] relates to ICR mice. In words: Spared nerve injury (SNI), von Frey mechanical threshold testing. It is filed as in vivo, mouse. The conditions noted are these: for SNI-induced mechanical hypersensitivity, injection on day 7 following injury: 1 nmol intrathecally 7 days post spared nerve injury; for SNI-induced mechanical hypersensitivity, pretreatment: 1 nmol intrathecally prior to spared nerve injury. The protocol: Male and Female ICR mice (25-30 g) were given 1 nmol of TpGc prior to (Panel A) or 7 days post (Panel B) spared nerve injury. A separate cohort (Panel C) of male ICR mice (25-50 g) were given 1 nmol of compound 7 intrathecally both prior to and 7 days post spared nerve injury. All cohorts were evaluated with Von Frey mechanical threshold testing.
Male and female ICR mice were given 1 nmol of HINT1 inhibitor TpGc or 7 intrathecally either immediately prior to or 7 days following induction of neuropathic pain via spared nerve injury (Decosterd, 2000). Briefly, an incision is made into the leg of the mouse directly above the branching of the sciatic nerve. The peroneal and tibial branches of the nerve are ligated and cut while the sural branch is left intact, leading to a localized hypersensitivity on the lateral portion of the hindpaw. Von Frey mechanical testing was performed prior to surgery and for up to 7 days post surgery.

Data set [6] has as its system mice. The conditions noted are these: icv, cited from earlier work.
In data set [7] the test system is mice. The note with it: single icv administration, CCI mice, cited from earlier work.
Data set [8] concerns the target T1, hHint1. The note with it: ITC, cited from earlier work. A general note: ITC needs no label: the signal is the heat of the interaction.
The target in data set [9] is T1, hHint1. Briefly: Fluorescence assay of hHint1 activity at fixed saturating substrate concentration. Type of data set: biochemical. The text has this:
The effect of a non-hydrolyzable nucleotide analog Bio-AMS was compared with compound 3 on the activity of hHint1 using a fluorescence assay described previously.^3
Isothermal titration calorimetry (ITC) was used to investigate the nature of non-covalent interactions on the inhibitory activity of Bio-AMS on hHint1.

[10] abbreviates: data adapted from Garzon et al.

Counter-ions that a name gives are not always drawn. Like-named read-outs stand apart in the source and are kept apart here. Bounds are passed on as bounds.

T1 sequence (P49773 whole entry): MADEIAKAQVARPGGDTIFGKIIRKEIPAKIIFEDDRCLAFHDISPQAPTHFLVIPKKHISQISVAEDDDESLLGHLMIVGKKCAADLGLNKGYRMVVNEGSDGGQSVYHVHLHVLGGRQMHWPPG

Consider `Nc1nc2c(ncn2[C@@H]2O[C@H](COS(=O)(=O)NC(=O)CCc3c[nH]c4ccccc34)C(O)[C@@H]2O)c(=O)[nH]1` (stereo partly drawn) [Compound 4, 5′-O—[N-(3-Indolepropionic acid)sulfamoyl] Guanosine Triethylammonium Salt], for which the “stock solutions easily prepared in aqueous buffers” value (“stock solutions easily prepared” for short) in data set [1] is “up to 5 mM”. Moreover, in data set [2], the ΔG is -8.46 ± 0.4 kcal/mol, the ΔH was -16.51 ± 0.17 kcal/mol and the “−TΔS” value came out at 8.05 ± 0.88 kcal/mol. Further, the “fold increase in binding affinity over compound 3” value in [2] (compared with compound 3) worked out at 4.5 fold.
One may read the Kd as a measure of binding affinity in units of concentration. `Nc1nc2c(ncn2[C@@H]2O[C@H](CNS(=O)(=O)NC(=O)CCc3c[nH]c4ccccc34)C(O)C2O)c(=O)[nH]1` (stereo partly drawn) [Compound 6, 5′-N—[N-(3-Indolepropionic acid)sulfamoyl] Guanosine Triethylammonium Salt]: in data set [1], the “stock solutions easily prepared” value is recorded as “up to 5 mM”. Besides, in data set [2], the equilibrium dissociation constant (Kd) was 920 ± 70 nM, the ΔG is -8.24 ± 0.12 kcal/mol, the ΔH was -14.75 ± 0.12 kcal/mol and the “−TΔS” value was determined as 6.57 ± 0.17 kcal/mol.
Consider `CCCC(=O)NS(=O)(=O)OC[C@H]1O[C@@H](n2cnc3c(=O)[nH]c(N)nc32)C(O)C1O` (stereo partly drawn) [Compound 5], for which the “stock solutions easily prepared” value in data set [1] is listed as “up to 5 mM”. For the same molecule, in [2], binding was characterised by a dissociation constant (Kd) of 2900 ± 250 nM, the ΔG was -5.81 ± 1.0 kcal/mol, the ΔH was -13.59 ± 1.12 kcal/mol and the “−TΔS” value was 7.71 ± 0.27 kcal/mol. Also, in [2] (compared with compound 4), the “decrease in the enthalpy of binding” value was ~2 kcal/mol and the “fold greater dissociation constant in comparison to 4” value is given as 3-4 fold.
Regarding `O=C(CCc1c[nH]c2ccccc12)NS(=O)(=O)OC[C@H]1O[C@@H](n2cnc3c2ncn2ccnc32)[C@@H](O)C1O` (stereo partly drawn) [Compound 7, 5′-O—[N-(3-Indolepropionic acid)sulfamoyl]EthenoAdenosine Triethylammonium Salt], the “morphine potency and efficacy after tolerance development protocol” value in [3] is “equivalent potency and efficacy compared to the saline pre-treatment”. Further, the “ED50, attenuation of morphine's inhibition of NMDA-evoked behavior” value in data set [4] amounted to 0.47 nM. Also, in data set [1], the “stock solutions easily prepared” value is ≤ 20 mM. Further, in data set [5], the “SNI-induced mechanical hypersensitivity, injection on day 7 following injury” value is “transient reversal that resolved at 4 hours post injection” and the “SNI-induced mechanical hypersensitivity, pretreatment” value is reported as “did not lead to an attenuation of pain behavior”.
Broadly, the IC50 is the concentration at which inhibition is half-maximal. For the molecule `Nc1nc2c(ncn2[C@@H]2O[C@H](COC(=O)NCCc3c[nH]c4ccccc34)[C@@H](O)[C@H]2O)c(=O)[nH]1` [Compound 3, guanosine-5′-tryptamine carbamate], the “morphine potency and efficacy after tolerance development protocol” value in [3] was “equivalent potency and efficacy compared to the saline pre-treatment”. The “ED50, attenuation of morphine's inhibition of NMDA-evoked behavior” value in data set [4] was determined as 0.61 nM. In addition, in [6] (listed as TpGc), the “effect on development of morphine tolerance” value is listed as “reduced the development of acute tolerance” and the “effect on morphine analgesia / antinociception” value is “potentiated morphine-evoked antinociception”. Besides, in data set [6], the “effect on development of morphine tolerance” value is “rescues and prevents the development of NMDAR mediated morphine tolerance”; the “effect on morphine analgesia / antinociception” value was “enhances morphine analgesia”. In addition, in data set [7], the mechanical allodynia result is given as “reduce mechanical allodynia in animals for several days”. In addition, the mechanical allodynia entry in data set [7] (listed as TpGc) is listed as “significant attenuation of mechanical allodynia that persisted for several days”. Moreover, in data set [8] (setting [10]), the ΔG was -4.1 ± 2.0 kcal/mol, the ΔH is -13.54 ± 1.00 kcal/mol and the “−TΔS” value was 9.54 ± 4.17 kcal/mol. Also, the Kd in data set [8] (data adapted from previously published result by Garzon et al.) is 3650 ± 1000 nM. In addition, it took 25500 ± 6000 nM to reach half-maximal inhibition in data set [9] (IC50). In addition, the aqueous solubility entry in data set [1] (in words) is given as “poor solubility”. Moreover, in data set [5], the “SNI-induced mechanical hypersensitivity, injection on day 7 following injury” value is on record as “transient reversal of mechanical hypersensitivity” and the “SNI-induced mechanical hypersensitivity, pretreatment” value was “sustained attenuation of SNI-induced mechanical hypersensitivity”.
In turn, `Nc1nc2c(ncn2C2OC(COS(=O)(=O)NC(=O)CCc3c[nH]c4ccccc34)C(O)C2O)c(=O)[nH]1` (single isomer, unassigned) [Compound 4, 5′-O—[N-(3-Indolepropionic acid)sulfamoyl] Guanosine Triethylammonium Salt] yielded a Kd in data set [2] of 810 ± 110 nM.

Source of the values: US10513520B2, “Sulfamide and sulfamate inhibitors of hHint1” (Regents of the University of Minnesota, priority 2016, dated 2019).
